The values below come from US5230998A, “Method for the prescreening of drugs targeted to the V3 hypervariable loop of the HIV-1 envelope glycoprotein gp 120” (priority 1991, dated 1993).

The subject of experiment [1] is HIV-1 reverse transcriptase. The settings on record: literature; cited from earlier work.
For experiment [2], the target named is T1, HIV-1 gp120 V3 hypervariable loop (Human immunodeficiency virus type 1 group M subtype B, UniProt P03375).
T1 construct: Polystyrene plates coated with recombinant gp120 and gp160, respectively; purchased American Bio-Technologies, Inc., Cambridge, Mass; host or cells: baculovirus expression system
As to the kind of experiment: biochemical. Format: binding. To be noted: excess of serum proteins in medium. On the procedure: Wells of 96 well polystyrene plates (Immulon 2, Dynatech Laboratories, Inc., Chantilly, Va.) were coated with synthetic peptides (200 μl; 20μg/ml in 0.1 M Tris-HCl, pH 8.8) overnight at 20° C. The peptides were from the sequence of HIV-1, clone BH 10 envelope glycoproteins gp120 and gp41 (Neurath, A. R., Strick, N., and Lee, E. Y. S. (1990), "B-cell Epitope Mapping of Human Immunodeficiency virus (HIV-1) Envelope Glycoprotein with Long (19 to 36-residue) Synthetic Peptides", J. Gen. Virol., 71., 85-95) and from V3 hypervariable loops of 21 distinct HIV-1 isolates (clones) Neurath, A. R., and Strick, N., (1990), "Confronting the Hypervariability of an Immunodominant Epitope Eliciting Virus Neutralizing Antibodies from the Envelope Glycoprotein of the Human Immunodeficiency Virus Type 1 (HIV-1)", Molec. Immunol., 27, 539-549. The latter peptides corresponded to full-length V3 loops generated by disulfide bonds between N- and C- terminal cysteine residues. After washing with 0.14 M NaCl, 0.01 M Tris, 0.02% NaN3 (TS), the wells were postcoated with a mixture of bovine serum albumin (BSA) and gelatine (10 and 2.5 mg/ml, respectively) in TS. BSA was omitted from the postcoating solution for RIA tests in which antibodies to ATA were used. Polystyrene plates coated with recombinant gp120 and gp160, respectively, (500 ng/well; from American Bio-Technologies, Inc., Cambridge, Mass. and MicroGeneSys, Inc., West Haven, Conn., respectively) were also used for RIA and ELISA tests.
To define sites on gp120/gp41 reacting with ATA, the inhibitory effect of this compound was studied by RIA tests using gp120- and gp160-coated wells, respectively, and antisera (final dilutions 1:150) against synthetic peptides from the entire sequence of gp120/gp41 of HIV-1 BH 10. The preparation and biological properties of these antisera were described elsewhere (Neurath et al., (1990), J. Gen. Virol., 71, 85-95). Each of the antisera was diluted in a mixture of fetal bovine serum and goat serum (9:1) containing 0.1% Tween 20, adjusted to pH 8. ATA (final concentration 50 μg/ml) was added in one set of assays, but was omitted from a parallel set. After incubation overnight at 25° C., the plates were washed with TS. Attached rabbit IgG was detected using ^125 I-labeled anti-rabbit IgG, as described before (Neurath et al., 1990, J. Gen. Virol., 71, 85-95). Similarly, the inhibitory effect of ATA on the reaction of peptides derived from gp120/gp41 and of peptides derived from V3 hypervariable loops from gp120 of distinct HIV-1 isolates with the respective homologous anti-peptide antisera was studied. In the latter case, antisera were diluted 1:1,000 for the assays.
(§1) The inhibitory effect of ATA and of other compounds on the reaction between antibodies with predetermined specificity and gp120 (or synthetic peptides derived from it) was determined from the formula: [formula] An analogous formula was used to calculate the percentage of inhibition from optical density readings resulting from ELISA tests.
Chemicals other than ATA were screened for inhibitory activity essentially as described above. […] Chemicals with inhibitory activity established by the respective immunoassays were screened further for antiviral activity.
Commercially available ATA is a mixture of monomers and polymers of distinct molecular masses (Gonzalez et al., (1979) Biochem. Biophys. Acta, 562, 534-545); Cushman et al., (1991), J. Chem., 34, 329-337). The monomers [molecular mass (M.W.)=422.4 daltons] were separated from the polymers. ATA (20 mg/ml in the form of free acid neutralized with 0.4 M NaOH) was dialyzed against H2 O in a dialysis membrane with a molecular mass cutoff of 500 daltons.

For experiment [3], the system named is gp120 expressed on the surface of HIV-1-infected cells. To be noted: literature; cited from earlier work.
Another experiment concerns CD4 receptor. The settings on record: literature; cited from earlier work.
Experiment [4] has as its system HIV-1 isolates IIIB, MN, SF2 and RF. As to the kind of experiment: Antiviral activity of porphyrin derivatives for distinct HIV-1 isolates in T-lymphocytic MT-2 cells (FIG. 12B). Format: cell-based. As for the experimental part:
(§2) FIG. 12A and FIG. 12B are graphs depicting antiviral activity of selected porphyrin derivatives for distinct HIV-1 isolates in T-lymphocytic (MT-2) (FIG. 12B) and a promonocytic (U937) (FIG. 12A) cell lines. […] Therefore, the antiviral activity against HIV-1 RF could not be tested in this cell line. Note that the higher the value of EC50, the less efficient is the drug for inhibiting HIV-1 replication.
(§3) Four of the porphyrin derivatives (see FIG. 12) were tested for their inhibiting activity and the replication of four distinct HIV-1 isolates: IIIB, MN, SF2 and RF in two different cell lines, U937 and MT-2.

Experiment [5] has as its system V3 hypervariable loop peptides from gp120 from 21 distinct HIV-1 isolates (clones). As to the kind of experiment: Inhibition of the reaction of V3 hypervariable loop peptides from 21 HIV-1 isolates with homologous anti-peptide antisera. In kind it is binding. To be noted: 21 HIV-1 isolates (clones); antisera 1:1,000; FIG. 7A, 7B.
Text: FIGS. 7A and 7B are bar graphs depicting the inhibitory effect of deuteroporphyrin IX,2,4 (4,2) hydroxyethylvinyl (FIG. 7A) and of meso-tetra(4-carboxyphenyl)porphine (FIG. 7B) on the reaction of full-length V3 hypervariable loop peptides from gp120 from 21 distinct HIV-1 isolates (clones) with homologous anti-peptide antisera. Peptide coated wells of polystyrene plates were reacted in the presence and absence of the inhibitory compounds with the respective rabbit antisera diluted 1:1,000, and the attachment of rabbit IgG was subsequently determined using ^125 I-labeled anti-rabbit IgG. […]
(§4) To define sites on gp120/gp41 reacting with ATA, the inhibitory effect of this compound was studied by RIA tests using gp120- and gp160-coated wells, respectively, and antisera (final dilutions 1:150) against synthetic peptides from the entire sequence of gp120/gp41 of HIV-1 BH 10. […] Attached rabbit IgG was detected using ^125 I-labeled anti-rabbit IgG, as described before (Neurath et al., 1990, J. Gen. Virol., 71, 85-95). […]
as §1

In experiment [6] the test system is HIV-1 isolates IIIB, MN, SF2 and RF. The experiment can be described thus: Antiviral activity of porphyrin derivatives for distinct HIV-1 isolates in promonocytic U937 cells (FIG. 12A). Format: cell-based. As for the experimental part:
as §2, §3

The next experiment has as its target T2, V3 peptide from HIV-1 SC (Human immunodeficiency virus type 1 (SC ISOLATE), UniProt P05878).
T2 construct: cut from Env gp160
The experiment can be described thus: Inhibition of the reaction of antibodies with the V3 peptide from HIV-1 SC (FIG. 7B). In kind it is binding. The settings on record: as compared with HXB-2 and HXB-3 V3 peptides.
Text: FIGS. 7A and 7B are bar graphs depicting the inhibitory effect of deuteroporphyrin IX,2,4 (4,2) hydroxyethylvinyl (FIG. 7A) and of meso-tetra(4-carboxyphenyl)porphine (FIG. 7B) on the reaction of full-length V3 hypervariable loop peptides from gp120 from 21 distinct HIV-1 isolates (clones) with homologous anti-peptide antisera. Peptide coated wells of polystyrene plates were reacted in the presence and absence of the inhibitory compounds with the respective rabbit antisera diluted 1:1,000, and the attachment of rabbit IgG was subsequently determined using ^125 I-labeled anti-rabbit IgG.
as §4, §1

The test system of experiment [7] is gp120 V3 hypervariable loop. The settings on record: 20-fold excess over gp120, absence of other proteins; cited from earlier work.
Experiment [8] deals with HIV-1. To be noted: literature; cited from earlier work.
In experiment [9] the test system is gp120 V3 hypervariable loop. The experiment can be described thus: Binding of gp120 to monoclonal antibodies specific for the V3 hypervariable loop in the absence of other proteins. More on the design: species or system HIV-1. To be noted: 20-fold excess over gp120, absence of other proteins. The source says: The inhibitory effect of dextran sulfate on gp120-antibody binding under these conditions was confirmed. The apparently contradictory results concerning binding of dextran sulfate to gp120 obtained by different methods can probably be explained by differences in equilibrium constants defining the binding reaction of gp120 with ATA and dextran sulfate, respectively. […] The relatively weak binding of dextran sulfate to the V3 hypervariable loop may contribute to the ineffectiveness of this substance in inhibiting HIV-1 replication in vivo (Mitsuya et al., (1990), Science, 249, 1533-1544).

In experiment [10] the test system is HIV-1. To be noted: literature; cited from earlier work. This is another data set of the same source.

T2 sequence (P05878 296-330): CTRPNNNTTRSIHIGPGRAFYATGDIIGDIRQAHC

Regarding `Cc1cc(-c2ccc(/N=N/c3ccc4c(S(=O)(=O)O)cc(S(=O)(=O)O)c(N)c4c3O)c(C)c2)ccc1/N=N/c1ccc2c(S(=O)(=O)O)cc(S(=O)(=O)O)c(N)c2c1O` [substance #28, Evans Blue], in experiment [1], the “inhibition of HIV-1 reverse transcriptase” value is listed as “inhibited the reverse transcriptase of HIV-1”. In experiment [2], the “reaction with the V3 hypervariable loop as determined by RIA (ELISA) tests” value (“reaction with the V3 hypervariable loop” below) is given as “did not react with the V3 hypervariable loop”. Besides, in [3], the “inhibition of the reaction of gp120 on infected cells with monoclonal anti-gp120 antibodies” value (“inhibition of the reaction of gp120” for short) is given as “inhibit the reaction of gp120 expressed on the surface of HIV-1-infected cells with monoclonal anti-gp120 antibodies”. The “inhibition of the interaction with CD4 receptor” value in the experiment with CD4 receptor is on record as “inhibited the interaction of the CD4 receptor for HIV-1”.
Turning to `CC1=C/C(=C(\c2ccc(N)c(S(=O)(=O)[O-])c2)c2ccc(N)c(S(=O)(=O)O)c2)C=C(S(=O)(=O)[O-])C1=N.[Na+].[Na+]` [substance #145, acid fuchsin], the “inhibition of HIV-1 reverse transcriptase” value in [1] is “inhibited the reverse transcriptase of HIV-1”. Also, the “reaction with the V3 hypervariable loop” value in experiment [2] was “did not react with the V3 hypervariable loop”.
Regarding `O=C(O)c1ccc(-c2c3nc(c(-c4ccc(C(=O)O)cc4)c4ccc([nH]4)c(-c4ccc(C(=O)O)cc4)c4nc(c(-c5ccc(C(=O)O)cc5)c5ccc2[nH]5)C=C4)C=C3)cc1` [substance #160, meso-tetra (4-carboxyphenyl) porphine], in experiment [4], the “inhibition of HIV-1 replication in MT-2 cells” value is “most effective agent with broad specificity”. For the same compound, the “inhibition of interaction between V3 hypervariable loop peptides and homologous antibodies” value in experiment [5] is “inhibited the interaction between V hypervariable loop peptides and homologous antibodies corresponding to all 21 HIV-1 isolates (clones) tested”. In experiment [6], the “inhibition of HIV-1 replication in U937 cells” value is recorded as “most effective agent with broad specificity”. For the same compound, at V3 peptide from HIV-1 SC, the “inhibitory activity on the reaction of antibodies with the V3 peptide” value is “relatively low inhibitory activity”.
In the case of `Cc1ccc(C(=O)Nc2ccc(S(=O)(=O)O)c3cc(S(=O)(=O)O)cc(S(=O)(=O)O)c23)cc1NC(=O)c1cccc(NC(=O)Nc2cccc(C(=O)Nc3cc(C(=O)Nc4ccc(S(=O)(=O)O)c5cc(S(=O)(=O)O)cc(S(=O)(=O)O)c45)ccc3C)c2)c1` [suramin, reference compound], in [1], the “inhibition of HIV-1 reverse transcriptase” value was “inhibited the reverse transcriptase of HIV-1”. For the same compound, the “inhibition of the reaction of gp120” value in experiment [3] is “inhibit the reaction of gp120 expressed on the surface of HIV-1-infected cells with monoclonal anti-gp120 antibodies”.
For “deuteroporphyrin IX, 2,4 (4,2) hydroxy-ethyl vinyl [substance #151]”, the “inhibition of interaction between V3 hypervariable loop peptides and homologous antibodies” value in [5] is “inhibited the interaction between V hypervariable loop peptides and homologous antibodies corresponding to all 21 HIV-1 isolates (clones) tested”.
For dextran sulfate, in experiment [7], the “blocking of binding of gp120 to monoclonal antibodies” value is reported as “blocked”. Also, in experiment [2], the “reaction with the V3 hypervariable loop” value is listed as “did not react with the V3 hypervariable loop”. For the same compound, the “inhibition of HIV-1 replication in vivo” value in the experiment with HIV-1 [8] is reported as “ineffectiveness”. Further, the “inhibition of the reaction of gp120” value in experiment [3] is “inhibit the reaction of gp120 expressed on the surface of HIV-1-infected cells with monoclonal anti-gp120 antibodies”. Also, the “inhibitory effect on gp120-antibody binding” value in experiment [9] is reported as “confirmed”.
On to hemin [substance #13], for which, in the experiment with HIV-1 [10], the “inhibition of HIV-1 replication / antiviral activity” value is “anti-HIV-1 activity”.
